In ChEMBL document CHEMBL1157539, “Thousands of chemical starting points for antimalarial lead identification” (Nature, 2010) one finds XC50 data, which are given here for 84 compounds.

The test system of the test is Plasmodium falciparum. Kind of test: GSK_TCMDC: Inhibition of Plasmodium falciparum 3D7 in whole erythrocytes, using parasite LDH activity as an index of growth. The format is functional, organism-based.

Where the note is “Plasmodium falciparum, 3D7”, `O=C(Nc1cccc(CN2CCCN(Cc3ccc(O)cc3)CC2)c1)c1ccc(-c2ccccc2)cc1` displayed an XC50 of 342 nM. Still for that read-out and setting: to `O=C(Nc1ccncc1)c1cc(C(=O)Nc2ccncc2)cc([N+](=O)[O-])c1` belongs 614 nM; to `Cc1nc2ccc(NC(=O)c3cc(S(=O)(=O)N(C)C)ccc3Cl)cc2s1`, 816 nM; to `O=C(NCCCN(Cc1ccc(F)cc1)c1ccccn1)C(c1cc2ccccc2o1)N1CCN(C(c2ccccc2)c2ccccc2)CC1` (stereo unspecified), 838 nM.

As for `N#Cc1c(N2CCN(c3ccc(F)cc3)CC2)nc(N)c2c(N)nc3c(c12)CC(=O)N3C1CC1`, the XC50 (Plasmodium falciparum, 3D7) was 837 nM.

In the case of `CC(=O)Nc1ccc(-c2nc3ccc(-c4nc5ccc(NC(C)=O)cc5[nH]4)cc3[nH]2)cc1`, where the note is “Plasmodium falciparum, 3D7”, the XC50 came out at 242 nM. On the same count and under the same terms, to `COc1ccc2ncc(F)c([C@@H](O)CN3CCC(NCc4cc5c(cn4)OCCO5)CC3)c2c1` belongs 140 nM. The compound `CCOC(=O)C1CCN(CCCNC(=O)/C(=C/C=C/c2cc3cc(Cl)c(Cl)cc3[nH]2)OC)CC1` displayed an XC50 (Plasmodium falciparum, 3D7) of 1040 nM. Same read-out and setting: the result for `O=C(Nc1cccc(CN2CCCN(Cc3ncc[nH]3)CC2)c1)c1ccc(Cl)c(Cl)c1` reads 795 nM; that for `CCCC(=O)c1cnc2cc(O)ccc2c1Nc1ccccc1C`, 651 nM.

As for `Cc1ccc(N2C(=O)C3C(C2=O)C2(c4ccccc4)C(=O)C3(c3ccccc3)C(c3ccccc3)=C2c2ccccc2)c(C)c1` (stereo unspecified), the XC50 (Plasmodium falciparum, 3D7) came to 529 nM. The same measure, in the same setting: to `COc1ccc2ncc(Cl)c(NCC3(O)CCC(NCc4ccc5c(n4)NC(=O)CS5)CC3)c2n1` (stereo unspecified) belongs 597 nM; to `O=C(N[C@H]1CCN(Cc2ccc(OCCN3CCNCC3)c(Cl)c2)C1)c1ccc(Cl)c(Cl)c1`, 1060 nM. On the same count and under the same terms, to `NC1CCN(Cc2ccc(-c3ccc(-c4nc5ccccc5[nH]4)cc3)cc2)C1` (stereo unspecified) belongs 147 nM; to `O=C(Nc1ccc(-c2nc3ccccc3[nH]2)cc1)c1ccc(Cl)s1`, 595 nM. Same read-out and setting: to `Cc1ccccc1C1=CCN(CCCN2c3ccccc3Sc3ccc(Cl)cc32)CC1` belongs 871 nM.

The compound `O=C(NCCCCCN1CCCN(C(=O)Nc2ccc(F)c(C(F)(F)F)c2)CC1)C1CC1c1ccc(Cl)c(Cl)c1` (stereo unspecified) yielded an XC50 (Plasmodium falciparum, 3D7) of 1030 nM. The same measure, in the same setting: the result for `Cc1c(-c2cccc(NC(=O)C(C)(C)Oc3ccc(Cl)cc3)c2)nc2ncccn12` reads 170 nM; that for `COC(=O)c1ccc(CCC(C)NCC(O)c2cccc(C(F)(F)F)c2)cc1` (stereo unspecified), 411 nM.

In the case of `COc1ccc(CNC2CCN(C)CC2)cc1-c1ccc(S(=O)(=O)NC2CCC2)c(F)c1`, the XC50 (Plasmodium falciparum, 3D7) worked out at 840 nM. Same read-out and setting: the result for `O=C(/C=C/c1cc([N+](=O)[O-])ccc1Cl)NC1CCC(CN2CCC(c3c[nH]c4ccccc34)CC2)CC1` (stereo unspecified) reads 740 nM. On the same count and under the same terms, the result for `O=C(Nc1ccc(CCN2CCC(c3nc(COCC(F)(F)F)c(-c4ccccc4)o3)CC2)cc1)c1ccc(F)cc1` reads 1970 nM. As to `CC(C)(C)c1cc(/C=C/C(=O)NC2CCC(CN3CCC(c4c[nH]c5ccccc45)CC3)CC2)cc(C(C)(C)C)c1O` (stereo unspecified), the XC50 worked out at 719 nM. Also, the XC50 (Plasmodium falciparum, 3D7) is 705 nM. Under “Plasmodium falciparum, 3D7”, `Cc1cccc2nc(-c3ccc(-c4ccc(CN5CCCC5CN)cc4)cc3)[nH]c12` (stereo unspecified) registered an XC50 of 815 nM. As for `CN1CCN(c2cc3c(cc2Br)CCN3C(=O)Nc2ccc(-c3cnc4ccccc4c3)cc2)CC1`, the XC50 (Plasmodium falciparum, 3D7) was determined as 576 nM. The same measure, in the same setting: the result for `NC1=NC2(CCCCC2)N(OCCCCCCN2C(=O)c3ccccc3C2=O)C(N)=N1` reads 871 nM; that for `CCC[C@@H]([C@@H](CC1CCCCC1)C(=O)N[C@H](C(=O)Nc1nccs1)[C@@H](C)OCc1ccccc1)N(O)C=O`, 78.2 nM. Compound `COc1ccc2nccc([C@@H](O)CN3CCC(NCCc4c[nH]c5ccccc45)CC3)c2c1` returned an XC50 (Plasmodium falciparum, 3D7) of 210 nM. Same read-out and setting: the result for `COc1ccc(CSC2CCCCC23NC(=S)NC3=S)cc1` (stereo unspecified) reads 850 nM; that for `O=C1c2ccccc2C(=O)N1c1ccc(S(=O)(=O)N2CCOCC2)cc1`, 1260 nM. Still for that read-out and setting: to `COc1ccc2c(c1)c(C1CCN(CCCCNC(=O)c3ccc(-c4ccc(C(F)(F)F)cc4)cc3)CC1)cn2C(C)C` belongs 729 nM.

`CO/C(=C\C=C\c1cc2cc(Cl)c(Cl)cc2[nH]1)C(=O)NCCCN1CCN(c2ccc(OC)cc2)CC1` returned an XC50 (Plasmodium falciparum, 3D7) of 700 nM. Still for that read-out and setting: to `CCc1ccc(CN2CCC(CNC(=O)c3cc(-c4cccc(Cl)c4)cs3)C2)cc1` (stereo unspecified) belongs 1110 nM; to `O=S(=O)(Nc1ccc(CCN2CCC(N3CCCCC3)CC2)cc1)c1cccc2cccnc12`, 1060 nM.

In turn, `c1ccc(C2CCC(N3CCC(N4CCN(c5ccccc5)CC4)CC3)CC2)cc1` (stereo unspecified) came in with an XC50 (Plasmodium falciparum, 3D7) of 764 nM. Still for that read-out and setting: to `Cc1cc(=O)c(-c2ccc(Oc3ccc(OC(F)(F)F)cc3)cc2)c(C)[nH]1` belongs 363 nM.

`CCCN(Cc1nnc(-c2ccco2)o1)C(=O)C1CCCN(C(=O)c2ccc(Cl)cc2)C1` (stereo unspecified) registered an XC50 (Plasmodium falciparum, 3D7) of 518 nM. Turning to `O=C(C=Cc1ccc(-c2ccccc2)cc1)NC1CCC(CN2CCC(c3c[nH]c4ccccc34)CC2)CC1` (stereo unspecified), the XC50 came out at 807 nM. The compound also registered an XC50 (Plasmodium falciparum, 3D7) of 738 nM.

For the compound `CCSc1ccccc1CON1C(=N)N=C(N)NC1(C)C`, where the note is “Plasmodium falciparum, 3D7”, the XC50 came out at 3.2 nM.

Where the note is “Plasmodium falciparum, 3D7”, `CC12CCC(CN(CC(O)Cn3c4ccccc4c4cc(I)ccc43)C1)C2(C)C` (stereo unspecified) displayed an XC50 of 1160 nM. Turning to `N[C@@H](CCNC1CCN(c2cccc(C(F)(F)F)c2)CC1)Cc1ccc(F)c(F)c1`, the XC50 (Plasmodium falciparum, 3D7) amounted to 1290 nM.

With `CC(C)(O)CC(C)(C)c1cc(Cl)ccc1O`, the XC50 (Plasmodium falciparum, 3D7) was found to be 455 nM. Where the note is “Plasmodium falciparum, 3D7”, `Cc1cc(N(C)C)nc(Nc2ccc(NC(=O)c3ccccc3Cl)cc2)n1` came in with an XC50 of 1020 nM. `CC1(C)NC(N)=NC(=N)N1OCCc1ccc(N)cc1` yielded an XC50 (Plasmodium falciparum, 3D7) of 3.2 nM. Compound `CC(C)Cn1c(Sc2ccc(C#N)c([N+](=O)[O-])c2)nnc1-c1ccccc1Cl` displayed an XC50 (Plasmodium falciparum, 3D7) of 901 nM.

Turning to `COc1ccc(Nc2nc(C)cc(NCc3ccc(-c4c(C)noc4C)cc3)n2)cc1`, the XC50 (Plasmodium falciparum, 3D7) turned out to be 844 nM. Same read-out and setting: to `O=C(Nc1cccc(CN2CCCN(Cc3ccc(O)cc3)CC2)c1)c1cccc(F)c1` belongs 896 nM; to `COc1ccc(-c2ccc(NC(=O)c3ccc(Cl)cc3)cc2)cc1CN1CCN(C)CC1`, 823 nM; to `COc1ccc2ncc(F)c(CCN3CC[C@H](NC(=O)c4ccc5c(n4)NC(=O)CS5)[C@H](O)C3)c2n1`, 947 nM. `O=C(Cc1ccccc1)NC(Nc1ccc([N+](=O)[O-])cc1)C(Cl)(Cl)Cl` (stereo unspecified) displayed an XC50 (Plasmodium falciparum, 3D7) of 973 nM.

As for `Cc1cc(F)ccc1-c1nc(NCC(O)CNCCc2ccccc2)nc2c1ccc(=O)n2-c1c(F)cccc1F` (stereo unspecified), the XC50 (Plasmodium falciparum, 3D7) worked out at 539 nM. `CC[C@H]1CN2CC[C@H]1C[C@H]2[C@H](O)c1cc(N2CCCC(CO)C2)nc2ccc(OC)cc12` (stereo partly specified): under “Plasmodium falciparum, 3D7”, the XC50 was 77.5 nM. On the same count and under the same terms, to `CCCCNc1c(CC)c(C)c(C#N)c2nc3ccccc3n12` belongs 385 nM. Under “Plasmodium falciparum, 3D7”, `CCN(CC)S(=O)(=O)n1ncc2c3c(N)nc(N)nc3ccc21` displayed an XC50 of 54.9 nM.

Consider `CC(CN1CCN(C)CC1)C(=O)Nc1ccc(-c2ccc(-c3nc4cc(C(F)(F)F)ccc4[nH]3)cc2)cc1` (stereo unspecified), for which the XC50 (Plasmodium falciparum, 3D7) worked out at 415 nM. Same read-out and setting: the result for `Oc1c(CNC2CCCCC2)cc(Cl)c2ccccc12` reads 838 nM; that for `COc1ccc(-c2nonc2NC(=O)c2cccc(Cl)c2)cc1OC`, 876 nM; that for `CN1C(=O)C(=O)N(CCCCCONC(=N)N)C1=S`, 197 nM.

Regarding `COc1cc(NC(=O)/C=C/c2cccc3cc[nH]c23)ccc1OCCN(C(C)C)C(C)C`, the XC50 (Plasmodium falciparum, 3D7) worked out at 270 nM. Where the note is “Plasmodium falciparum, 3D7”, `c1ccc2c(C3CCN(CCCCOc4ccc5c(c4)CCN(CC4CC4)CC5)CC3)c[nH]c2c1` had an XC50 of 982 nM.

Under “Plasmodium falciparum, 3D7”, `COc1ccc(NC(=O)[C@H](CC(C)C)Nc2cc(C)nc(NCCOc3ccccc3)n2)cc1` showed an XC50 of 800 nM.

For the setting “Plasmodium falciparum, 3D7”, `O=C(/C=C/c1ccc(Cl)c(Cl)c1)NCCCCCN1CCC(NC(=O)Nc2ccc3c(c2)OCO3)CC1` displayed an XC50 of 713 nM. Still for that read-out and setting: the result for `COc1ccc(NC(=O)Nc2ccc(-c3ccccc3)cc2)cc1Cn1cnc(N2CCCNCC2)cc1=O` reads 759 nM. `C[C@@H]1CN(C(c2cccc(O)c2)c2cccc(C(=O)N(C)c3cccc(F)c3)c2)[C@@H](C)CN1C(c1cccc(O)c1)c1cccc(C(=O)N(C)c2cccc(F)c2)c1` (stereo partly specified): the XC50 (Plasmodium falciparum, 3D7) was determined as 918 nM.

Consider `Cc1cc(N2CCN(C(=O)OC(C)(C)C)CC2)ccc1N`, for which, where the note is “Plasmodium falciparum, 3D7”, the XC50 was determined as 865 nM. Still for that read-out and setting: to `Cc1cccc(C=NN=c2cc(C)[nH]c3ccc(F)cc23)n1` belongs 1000 nM. `CNCC(C)(C)c1nc(-c2ccc(Cl)c(O)c2)c(-c2ccncc2)[nH]1` registered an XC50 (Plasmodium falciparum, 3D7) of 736 nM. Still for that read-out and setting: the result for `c1ccc2[nH]c(-c3ccc(-c4ccc(CNCC5CCCO5)cc4)s3)nc2c1` (stereo unspecified) reads 869 nM; that for `CC[C@H]1CN2CC[C@@H]1C[C@H]2[C@H](O)c1cc(-c2cccnc2)nc2ccc(OC)cc12`, 37.9 nM; that for `Cc1ccc(F)c(OCC2CCN(c3ncc(C(=O)NC4CC4)cc3Cl)CC2)c1`, 902 nM.

As for `O=C(c1cccc(-c2cccc(-c3nc4ccccc4[nH]3)c2)c1)N1CCCCC1CN1CCC(O)C1` (stereo unspecified), the XC50 (Plasmodium falciparum, 3D7) worked out at 728 nM. `CCCNC(=O)C1CCN(C(c2ccccc2)c2ccc(Cl)c(Cl)c2)CC1` (stereo unspecified): the XC50 (Plasmodium falciparum, 3D7) stood at 708 nM.

`N#Cc1ccccc1N1CCN(C2CCC(NC(=O)c3n[nH]c4cc(C(F)(F)F)ccc34)CC2)CC1` (stereo unspecified) returned an XC50 (Plasmodium falciparum, 3D7) of 1370 nM. The same measure, in the same setting: the result for `O=C(NC1CCN(Cc2cccc(C(F)(F)F)c2)CC1)c1ccc(-c2cccc(C(F)(F)F)c2)s1` reads 1010 nM; that for `Cc1nc(N)nc(N)c1OCCCOc1cccc(Cl)c1Cl`, 2.56 nM.

Where the note is “Plasmodium falciparum, 3D7”, `COc1ccc2nccc([C@@H](O)CN3CCC(NCC4COc5ccccc5O4)CC3)c2c1` (stereo partly specified) displayed an XC50 of 247 nM. As to `CC1(C)C2C=C(CN3CCC(NC(=O)Nc4ccc(Cl)c(Cl)c4)CC3)C1CC2` (stereo unspecified), the XC50 (Plasmodium falciparum, 3D7) was 761 nM. With `FC(F)(F)c1ccc2[nH]c(-c3ccc(-c4cccc(CNCc5ccccc5)c4)cc3)nc2c1`, the XC50 (Plasmodium falciparum, 3D7) came out at 222 nM.

For `COc1ccc(N2CCN(CCCCNC(=O)c3ccc(/C=C/c4ccc(Cl)c(Cl)c4)cc3)CC2)c(OC)c1`, under “Plasmodium falciparum, 3D7”, the XC50 turned out to be 709 nM.

In turn, `Cc1nc(-c2nc(NCCc3cnccn3)ncc2-c2ccsc2)sc1C` displayed an XC50 (Plasmodium falciparum, 3D7) of 881 nM.

Where the note is “Plasmodium falciparum, 3D7”, `O=S(=O)(Nc1cccc(CCN2CCCCC2CCN2CCCC2)c1)c1ccc(Oc2ccccc2)cc1` (stereo unspecified) showed an XC50 of 1050 nM.

`COc1ccc(CN(C)Cc2ccc(NC(=O)c3cccc4c(=O)c5cccc(C)c5[nH]c34)cc2)cc1OC`: the XC50 (Plasmodium falciparum, 3D7) is 844 nM. Same read-out and setting: to `CCCN1CC[C@@H](CCCc2ccnc3ccc(O)cc23)[C@@H](CC)C1` belongs 889 nM; to `NC(=O)c1cccc(CNCc2ccc(-c3cccc(-c4nc5ccccc5[nH]4)c3)cc2)c1`, 592 nM.
